What all share (type): cell-based
One assay relates to KM12 cells. Briefly: KM12 cells proliferation inhibition (MTS), mechanism-based assay for TRK. The following applies: Homo sapiens, KM12, 72 h. The source says: (§1) MTS testing kit was purchased from Promega (Madison, Wis., USA). The RPMI-1640, Fetal bovine serum and Penicillin-Streptomycin were purchased from Gibco (San Francisco, Calif., USA). Dimethyl sulfoxide (DMSO) and Puromycin were purchased from Sigma (St. Louis., Mo., USA). Mouse interleukin-3 (IL-3) was purchased from Cell signaling Technology (Boston, Mass., USA).
To investigate whether a compound is able to inhibit the activity of TRK in cells, a mechanism-based assay using KM12 cells was developed. In this assay, inhibition of TRK was detected by the inhibition of KM12 cells proliferation. KM12 cells were cultured in culture flasks to 40-80% confluence in RPMI-1640 plus 10% fetal bovine serum. Cells were collected and plated onto 96-well plates at 1000 cells/well. Plates were incubated at 37° C., with 5% CO2 for 4 h. Compounds were added to the plates, the final compound concentrations were […], 123.5, 41.2, 13.7, 4.6 and 1.5 nM. Place plates at 37° C., with 5% CO2 for KM12 cells 72 h. 20 μl MTS/100 μl medium mixture solution were added to each well and incubate the plates for exactly 2 h. Stop the reaction by adding 25 μl 10% SDS per well. Measure absorbance at 490 nm and 650 nm (reference wavelength). IC50 was calculated using GraphPad Prism 5.0.

The next assay concerns the target T1, TPM3-TRKA-G595R (Homo sapiens, UniProt P04629, G595R).
T1 construct: TPM3 (tropomyosin alpha-3, P06753) fusion partner; expressed in transfected cells; host or cells: Ba/F3; the other entry of the earlier key: TPM3 (P06753, Tropomyosin alpha-3 chain)
Briefly: Engineered Ba/F3 cell proliferation inhibition (MTS), TPM3-TRKA-G595R. The following applies: 72 h.
Excerpt: as §1
(§2) To investigate whether a compound is able to inhibit the activity of TRK fusion mutation in cells, a mechanism-based assay using engineered Ba/F3 cell lines stably overexpressing oncogenic rearrangement or gene mutation of TRK (TPM3-TRKA, TPM3-TRKA-G595R, AFAP1-TRKB, ETV6-TRKC and ETV6-TRKC-G623R) were developed. In this assay, inhibition of TRK fusion mutation was detected by the cell proliferation inhibition of engineered Ba/F3 cells. Engineered Ba/F3 cells were cultured in culture flasks to 40-80% confluence in RPMI-1640 supplemented with 10% fetal bovine serum, 2 ug/mL puromycin. Cells were collected and plated onto 96-well plates at desired cell density (Ba/F3-TPM3-TRKA: 3×10^4/mL, Ba/F3-TPM3-TRKA-G595R: 1×10^5/mL, Ba/F3-AFAP1-TRKB: 1×10^5/mL, Ba/F3-ETV6-TRKC: 3×10^4/mL, Ba/F3-ETV6-TRKC-G623R: 3×10^4/mL). Plates were incubated at 37° C., with 5% CO2 for 4 h. Compounds were then added to the plates with the final compound concentrations of 10000, 3333, 1111, […], 123, 41.2, 13.7, 4.6 and 1.5 nM. Plates were incubated at 37° C., with 5% CO2 for 72 h. A mixture of 20 μl MTS/100 μl medium were added to each well and the plates were incubated at 37° C., with 5% CO2 for exactly 2 h. The reaction was stopped by adding 25 μl of 10% SDS per well. The absorbance was measured at 490 nm and 650 nm (reference wavelength). IC50 was calculated using GraphPad Prism 5.0 software.

The target of a further assay is T2, ETV6-TRKC-G623R (Homo sapiens, UniProt Q16288, G623R).
T2 construct: fused on or other part: P41212 (Transcription factor ETV6)
The experiment in a line: Engineered Ba/F3 cell proliferation inhibition (MTS), ETV6-TRKC-G623R. The following applies: 72 h.
Excerpt: as §1, §2

The target of the next assay is T3, TPM3-TRKA (Homo sapiens, UniProt P04629).
T3 construct: TPM3 (tropomyosin alpha-3, P06753) fusion partner; expressed in transfected cells; host or cells: Ba/F3; the other entry of the earlier key: TPM3 (P06753, Tropomyosin alpha-3 chain)
Briefly: Engineered Ba/F3 cell proliferation inhibition (MTS), TPM3-TRKA. The following applies: 72 h.
Excerpt: as §1, §2

Drawing on patent publication US11555042B2, “Macrocyclic compounds as TRK kinases inhibitors” (FOCHON BIOSCIENCES, LTD., priority 2018, dated 2023), this text covers IC50 for 17 compounds.

Each structure is given as a SMILES string.

T1 sequence (P04629 510-796 G595R limits assumed): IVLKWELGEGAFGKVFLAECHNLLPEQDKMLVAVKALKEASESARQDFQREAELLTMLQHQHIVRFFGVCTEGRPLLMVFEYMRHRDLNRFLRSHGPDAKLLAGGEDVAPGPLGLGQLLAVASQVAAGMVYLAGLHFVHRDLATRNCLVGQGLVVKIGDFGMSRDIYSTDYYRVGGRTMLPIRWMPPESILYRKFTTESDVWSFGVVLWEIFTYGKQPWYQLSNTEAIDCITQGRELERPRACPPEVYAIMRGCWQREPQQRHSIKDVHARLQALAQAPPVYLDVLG
T2 sequence (Q16288 whole entry G623R, the tested form may be a part): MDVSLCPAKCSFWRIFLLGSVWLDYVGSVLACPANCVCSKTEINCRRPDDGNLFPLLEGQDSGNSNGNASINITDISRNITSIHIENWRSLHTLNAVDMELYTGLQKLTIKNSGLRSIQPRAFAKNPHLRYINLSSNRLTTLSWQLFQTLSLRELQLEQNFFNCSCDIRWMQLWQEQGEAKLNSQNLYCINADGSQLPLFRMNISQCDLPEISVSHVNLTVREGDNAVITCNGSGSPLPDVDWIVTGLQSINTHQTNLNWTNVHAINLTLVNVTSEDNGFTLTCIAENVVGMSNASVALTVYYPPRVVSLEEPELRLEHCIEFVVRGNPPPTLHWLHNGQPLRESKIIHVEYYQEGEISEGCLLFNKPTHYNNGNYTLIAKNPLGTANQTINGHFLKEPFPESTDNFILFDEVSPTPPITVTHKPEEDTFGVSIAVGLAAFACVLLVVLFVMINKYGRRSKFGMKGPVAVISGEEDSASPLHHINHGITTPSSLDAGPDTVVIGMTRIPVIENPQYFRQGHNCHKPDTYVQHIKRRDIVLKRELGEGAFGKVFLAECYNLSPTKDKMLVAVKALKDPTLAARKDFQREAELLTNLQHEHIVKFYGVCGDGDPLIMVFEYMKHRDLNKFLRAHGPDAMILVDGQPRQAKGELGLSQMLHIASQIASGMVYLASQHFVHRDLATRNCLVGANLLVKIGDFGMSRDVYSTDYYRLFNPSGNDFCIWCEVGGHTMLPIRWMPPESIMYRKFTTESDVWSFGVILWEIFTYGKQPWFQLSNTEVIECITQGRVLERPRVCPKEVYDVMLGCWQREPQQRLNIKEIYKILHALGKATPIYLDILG
T3 sequence (P04629 510-796 limits assumed): as the sequence (P04629 510-796 G595R limits assumed) above, with R86G counted along it

One may read the IC50 as the concentration that gives 50% inhibition. Read a low IC50 as inhibition by little substance. For the compound `C[C@@H]1COc2ccc(F)cc2C2(CC2)N(C)c2ccn3ncc(c3n2)C(=O)N1` [Example 11, (R,3′E,4′E)-5′-fluoro-2′,7′-dimethylspiro[cyclopropane-1,3′-5-oxa-2,8-diaza-1(5,3)-pyrazolo[1,5-a]pyrimidina-4(1,2)-benzenacyclononaphan]-9′-one], the IC50 with KM12 cells worked out at 1 nM; against TPM3-TRKA-G595R, 36 nM; against ETV6-TRKC-G623R it was 41 nM.

Consider `CN1c2ccn3ncc(c3n2)C(=O)NC2(CC2)COc2ccc(F)cc2C12CC2` [Example 69, (3′E,4′E)-5′-fluoro-2′-methyldispiro-[cyclopropane-1,3′-5-oxa-2,8-diaza-1(5,3)-pyrazolo[1,5-a]pyrimidina-4(1,2)-benzenacyclononaphane-7′,1″-cyclopropan]-9′-one], for which the IC50 in the assay with KM12 cells worked out at 1 nM; on TPM3-TRKA-G595R, 1 nM; against ETV6-TRKC-G623R it was 4 nM.

For `O=C1NC2(CCc3ncc(F)cc3[C@@]34C[C@@H]3CCN4c3ccc4ncc1n4n3)CC2` [Example 78, (1′R,5′S,E)-5′fluorospiro[cyclopropane-1,6′-2^2,7-diaza-1(6,3)-imidazo[1,2-b]pyridazina-3(3,2)-pyridina-2(2,1)-bicyclo [3.1.0]hexanacyclooctaphan]-8′-one], the IC50 is 1 nM in the assay with KM12 cells, 3 nM against TPM3-TRKA-G595R and 1 nM on ETV6-TRKC-G623R.

In the case of `CN1c2ccn3ncc(c3n2)C(=O)NC2(CC2)CSc2ncc(F)cc2C12CC2` [Example 86, (3′E,4′E)-5′-fluoro-2′-methyldispiro-[cyclopropane-1,3′-5-thia-2,8-diaza-1(5,3)-pyrazolo[1,5-a]pyrimidina-4(3,2)-pyridina-cyclononaphane-7′,1″-cyclopropan]-9′-one], the IC50 in the assay with KM12 cells, against TPM3-TRKA-G595R and on ETV6-TRKC-G623R was 1 nM in each case.

As to `CN1c2ccn3ncc(c3n2)C(=O)NCCOc2ccc(F)cc2C12CC2` [Example 54, (3′E,4′E)-5′-fluoro-2′-methylspiro-[cyclopropane-1,3′-5-oxa-2,8-diaza-1(5,3)-pyrazolo[1,5-a]pyrimidina-4(1,2)-benzenacyclononaphan]-9′-one], the values for the 50% inhibitory concentration (IC50) in the assay on KM12 cells, on TPM3-TRKA and at ETV6-TRKC-G623R were 9 nM, 13 nM and 62 nM, respectively.

For the compound `CCN1c2ccn3ncc(c3n2)C(=O)NC[C@H](C)Oc2ncc(F)cc2C12CC2` [Example 62, (S,3′E,4′E)-2′-ethyl-5′-fluoro-6′-methylspiro [cyclopropane-1,3′-5-oxa-2,8-diaza-1(5,3)-pyrazolo[1,5-a]pyrimidina-4(3,2)-pyridinacyclononphan]-9′-one], the IC50 stood at 13 nM with KM12 cells and 46 nM against TPM3-TRKA.

As to `O=C1NCCCc2ccc(F)cc2[C@@]23C[C@@H]2CCN3c2ccn3ncc1c3n2` [Example 71, (1^3E,1^4E,2^1R,2^5S)-3^5-fluoro-2^2,7-diaza-1(5,3)-pyrazolo[1,5-a]pyrimidina-2(2,1)-bicyclo[3.1.0]hexana-3(1,2)-benzenacyclo-octaphan-8-one], the half-inhibitory concentration (IC50) in the assay with KM12 cells, against TPM3-TRKA-G595R and at ETV6-TRKC-G623R was 1 nM in each case.

`O=C1NCCCOc2ncc(F)cc2C2(CC2)Nc2ccn3ncc1c3n2` [Example 67, (3′E,4′E)-5′-fluorospiro[cyclopropane-1,3′-5-oxa-2,9-diaza-1(5,3)-pyrazolo[1,5-a]pyrimidina-4(3,2)-pyridinacyclodecaphan]-10′-one]: the values for the IC50 with KM12 cells and against TPM3-TRKA were 10 nM and 23 nM, respectively.

On to `CCN1c2ccn3ncc(c3n2)C(=O)N[C@H](C)COc2ccc(F)cc2C12CC2` [Example 59, (R,3′E,4′E)-2′-ethyl-5′-fluoro-7′-methyl-spiro[cyclopropane-1,3′-5-oxa-2,8-diaza-1(5,3)-pyrazolo[1,5-a]pyrimidina-4(1,2)-benzenacyclononaphan]-9′-one], for which the half-maximal inhibitory concentration (IC50) in the assay with KM12 cells came to 1 nM; against TPM3-TRKA, 17 nM.

`C[C@@H]1CNC(=O)c2cnn3ccc(nc23)N2CC[C@H]3C[C@]32c2cc(F)ccc2O1` [Example 21, (1^3E,1^4E,2^1R,2^5S,5R)-3^5-fluoro-5-methyl-4-oxa-2^2,7-diaza-1(5,3)-pyrazolo[1,5-a]pyrimidina-2(2,1)-bicyclo[3.1.0]hexana-3(1,2)-benzenacyclooctaphan-8-one]: the IC50 in the assay on KM12 cells, against TPM3-TRKA and against ETV6-TRKC-G623R was 1 nM in each case.

`C[C@@H]1CCc2ncc(F)cc2C2(CC2)N(C)c2ccn3ncc(c3n2)C(=O)N1` [Example 51, (R,3′E,4′E)-5′-fluoro-2′,7′-dimethylspiro-[cyclopropane-1,3′-2,8-diaza-1(5,3)-pyrazolo[1,5-a]pyrimidina-4(3,2)-pyridina-cyclononaphan]-9′-one]: the IC50 was found to be 3 nM in the assay on KM12 cells, 72 nM against TPM3-TRKA-G595R and 44 nM at ETV6-TRKC-G623R.

Turning to `C[C@H]1COc2ncc(F)cc2[C@@]23C[C@@H]2CCN3c2ccn3ncc(c3n2)C(=O)N1` [Example 28, (1^3E,1^4E,2^1R,2^5S,6S)-3^5-fluoro-6-methyl-4-oxa-2^2,7-diaza-1(5,3)-pyrazolo[1,5-a]pyrimidina-3(3,2)-pyridina-2(2,1)-bicyclo[3.1.0]hexanacyclooctaphan-8-one], the IC50 was 1 nM in the assay with KM12 cells, 1 nM against TPM3-TRKA and 6 nM against ETV6-TRKC-G623R.

Take `C[C@@H]1COc2ncc(F)cc2C2(CC2)N(C)c2ccn3ncc(c3n2)C(=O)N1` [Example 48, (R,3′E,4′E)-5′-fluoro-2′,7′-dimethylspiro-[cyclopropane-1,3′-5-oxa-2,8-diaza-1(5,3)-pyrazolo[1,5-a]pyrimidina-4(3,2)-pyridina-cyclononaphan]-9′-one]: the IC50 in the assay with KM12 cells was 2 nM; against TPM3-TRKA-G595R it was 14 nM; on ETV6-TRKC-G623R it was 12 nM.

With `C[C@@H]1COc2ncc(F)cc2C2(CC2)N(C)c2ccc3ncc(n3n2)C(=O)N1` [Example 47, (7′R,E)-5′-fluoro-2′,7′-dimethylspiro-[cyclopropane-1,3′-5-oxa-2,8-diaza-1(6,3)-imidazo[1,2-b]pyridazina-4(3,2)-pyridina-cyclononaphan]-9′-one], the IC50 in the assay with KM12 cells came out at 2 nM; at TPM3-TRKA-G595R it was 26 nM; on ETV6-TRKC-G623R, 23 nM.

Turning to `C[C@H]1CCc2ncc(F)cc2[C@@]23C[C@@H]2CCN3c2ccn3ncc(c3n2)C(=O)N1` [Example 30, (1^3E,1^4E,2^1R,2^5S,6S)-35-fluoro-6-methyl-2^2,7-diaza-1(5,3)-pyrazolo[1,5-a]pyrimidina-3(3,2)-pyridina-2(2,1)-bicyclo[3.1.0]hexana-cyclooctaphan-8-one], the 50% inhibitory concentration (IC50) is 1 nM in the assay on KM12 cells, 1 nM against TPM3-TRKA and 2 nM on ETV6-TRKC-G623R.

Consider `CCN1c2ccn3ncc(c3n2)C(=O)N[C@H](C)COc2ncc(F)cc2C12CC2` [Example 64, (R,3′E,4′E)-2′-ethyl-5′-fluoro-7′-methylspiro [cyclopropane-1,3′-5-oxa-2,8-diaza-1(5,3)-pyrazolo[1,5-a]pyrimidina-4(3,2)-pyridinacyclononaphan]-9′-one], for which the half-maximal inhibitory concentration (IC50) in the assay with KM12 cells was 2 nM; on TPM3-TRKA, 6 nM; against ETV6-TRKC-G623R, 68 nM.

For the compound `O=C1NC2(CCc3ncc(F)cc3[C@@]34C[C@@H]3CCN4c3ccn4ncc1c4n3)CC2` [Example 77, (1′R,3′E,4′E,5′S)-5′-fluorospiro-[cyclopropane-1,6′-2^2,7-diaza-1(5,3)-pyrazolo[1,5-a]pyrimidina-3(3,2)-pyridina-2(2,1)-bicyclo[3.1.0]hexanacyclooctaphan]-8′-one], the IC50 with KM12 cells, against TPM3-TRKA-G595R and against ETV6-TRKC-G623R was 1 nM throughout.
